According to US4029547A (priority 1974, dated 1977):
pIC50: −log10 of the molar value. Several values for one entry are separate records, joined by “and”; a condition that tells them apart may be missing. Equal values may be shown once. Entries after “also recorded” stand apart in the source; their conditions may differ. Read-outs that look alike come from different tables or passages of the source.

Assays:
aminopeptidase B = target: T1, aminopeptidase B (Rattus norvegicus, UniProt O09175); assay: Inhibition of aminopeptidase B (arginine β-naphthylamide hydrolysis); assay type: biochemical; conditions: for 50% inhibition dose (ID50) of aminopeptidase B: amount added to the test solution
T1 construct: aminopeptidase B of rat liver; from tissue; host or cells: rat liver, enzyme prepared by Sephadex 100 chromatography
T1 sequence (O09175 1-650): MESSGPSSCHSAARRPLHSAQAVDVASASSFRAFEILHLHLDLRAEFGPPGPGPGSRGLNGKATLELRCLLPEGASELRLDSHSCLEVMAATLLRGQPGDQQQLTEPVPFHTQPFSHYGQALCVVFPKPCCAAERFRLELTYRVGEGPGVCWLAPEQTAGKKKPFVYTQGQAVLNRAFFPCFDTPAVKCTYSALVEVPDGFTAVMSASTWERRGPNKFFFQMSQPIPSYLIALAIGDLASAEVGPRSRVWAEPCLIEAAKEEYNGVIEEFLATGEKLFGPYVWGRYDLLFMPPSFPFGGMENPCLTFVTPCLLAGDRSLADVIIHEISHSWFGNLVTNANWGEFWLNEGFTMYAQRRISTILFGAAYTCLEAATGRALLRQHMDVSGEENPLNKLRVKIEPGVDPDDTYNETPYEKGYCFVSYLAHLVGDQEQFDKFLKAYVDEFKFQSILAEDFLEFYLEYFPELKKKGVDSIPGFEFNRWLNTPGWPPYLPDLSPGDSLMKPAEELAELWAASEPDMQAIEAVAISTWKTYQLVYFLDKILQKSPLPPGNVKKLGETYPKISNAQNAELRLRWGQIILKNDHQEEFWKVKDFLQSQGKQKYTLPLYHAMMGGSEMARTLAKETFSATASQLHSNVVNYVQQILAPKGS
Protocol: To the mixture of 0.3 ml of 1 mM arginine β-naphthylamide and 1.0 ml of 0.1 M Tris hydrochloride buffer (pH 7.0), 0.7 ml of distilled water with or without a test material is added and warmed at 37° C.) for 3 minutes. The reaction is started by addition of 0.2 ml of aminopeptidase B solution which is prepared by Sephadex 100 chromatography as described by Hopusu et al. After 30 minutes at 37° C., 0.6 ml of 1.0 M acetate buffer (pH 4.2) containing diazonium salt of o-aminoazotoluene at 1.0 mg/ml and Tween 20 at 10% is added. […] The inhibition percent is calculated as follows: (b-a)/b × 100.

leucine aminopeptidase = target: T2, leucine aminopeptidase (Sus scrofa, UniProt P28839); assay: Inhibition of leucine aminopeptidase (L-leucine naphthylamide hydrolysis); assay type: biochemical, swine; conditions: substrate L-leucine-β-naphthylamide
T2 construct: leucine aminopeptidase of swine kidney; from tissue; host or cells: swine kidney
T2 sequence (P28839 33-519 limits assumed): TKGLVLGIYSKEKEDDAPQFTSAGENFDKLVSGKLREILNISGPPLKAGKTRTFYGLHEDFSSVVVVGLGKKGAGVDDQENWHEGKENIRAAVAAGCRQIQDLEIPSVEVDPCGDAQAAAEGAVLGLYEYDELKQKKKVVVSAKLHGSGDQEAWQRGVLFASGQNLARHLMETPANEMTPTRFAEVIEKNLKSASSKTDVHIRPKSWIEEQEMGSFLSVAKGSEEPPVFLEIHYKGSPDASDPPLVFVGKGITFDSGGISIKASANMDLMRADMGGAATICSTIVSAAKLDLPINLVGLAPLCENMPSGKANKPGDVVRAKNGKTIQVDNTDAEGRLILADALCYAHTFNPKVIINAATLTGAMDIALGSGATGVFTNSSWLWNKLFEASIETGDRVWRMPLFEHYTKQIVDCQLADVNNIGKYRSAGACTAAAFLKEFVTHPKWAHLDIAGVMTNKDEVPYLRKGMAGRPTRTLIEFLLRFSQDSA
Protocol: The activity was determined by the following method: to 0.25 ml. of 2 mM L-leucine-3-naphthylamide (Tokyo Chem. Indust. Co., Ltd., Japan) was added 0.5 ml. of 0.1 M Tris-HCl buffer at pH 7.0 and 0.2 ml. of distilled water with or without an inhibitor in a series of test tubes in a 37° C. bath. After 3 minutes, 0.05 ml. of enzyme solution was added and mixed well.

[1] = tested on: aminopeptidase A of human serum; assay: Inhibition of aminopeptidase A; assay type: biochemical
trypsin = assay: Inhibition of trypsin; assay type: biochemical
chymotrypsin = assay: Inhibition of chymotrypsin; assay type: biochemical
elastase = assay: Inhibition of elastase; assay type: biochemical
papain = target: T3, papain (Carica papaya, UniProt P00784); assay: Inhibition of papain; assay type: biochemical
T3 sequence (P00784 134-345): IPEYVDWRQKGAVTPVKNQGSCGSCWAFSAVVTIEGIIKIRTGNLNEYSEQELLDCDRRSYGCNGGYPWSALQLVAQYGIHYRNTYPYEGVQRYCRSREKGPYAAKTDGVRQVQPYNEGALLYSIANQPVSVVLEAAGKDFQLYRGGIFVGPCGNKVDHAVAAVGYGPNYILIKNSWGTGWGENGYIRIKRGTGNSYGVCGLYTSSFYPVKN

pepsin = assay: Inhibition of pepsin; assay type: biochemical
thermolysin = target: T4, thermolysin (Bacillus thermoproteolyticus, UniProt P00800); assay: Inhibition of thermolysin; assay type: biochemical
T4 sequence (P00800 233-548): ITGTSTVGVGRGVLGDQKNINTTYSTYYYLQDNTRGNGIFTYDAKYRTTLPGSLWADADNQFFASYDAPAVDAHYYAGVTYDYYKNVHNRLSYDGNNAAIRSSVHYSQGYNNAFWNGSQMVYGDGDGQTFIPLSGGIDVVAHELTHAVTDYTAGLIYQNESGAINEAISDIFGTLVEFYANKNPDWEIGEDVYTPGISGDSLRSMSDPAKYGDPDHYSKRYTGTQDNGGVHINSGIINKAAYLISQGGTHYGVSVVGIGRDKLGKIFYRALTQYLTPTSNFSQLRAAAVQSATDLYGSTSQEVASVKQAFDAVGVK

bacteria = assay: Antibacterial activity; assay type: cell-based
fungi = assay: Antifungal activity; assay type: cell-based; conditions: at 100 μg/ml
[2] = Toxicity after intraperitoneal injection; assay type: in vivo, mouse
[3] = tested on: Yoshida rat sarcoma cells; assay: Increase of bleomycin activity in tissue culture; assay type: cell-based; conditions: bestatin 6.25 μg/ml in tissue culture medium
[4] = tested on: methylcholanthrene-induced squamous cell carcinoma; assay: Increase of bleomycin effect on carcinoma in vivo; set-up: species or system rat; conditions: simultaneous subcutaneous daily injection, 5 mg/kg bestatin with 5 mg/kg bleomycin, rats
Stability to pH and heat = assay type: physicochemical; conditions: culture filtrate containing bestatin, pH 2.0 or pH 9.0, 60° C., 30 minutes
Solubility in solvents = assay type: physicochemical
bleomycin hydrolase = assay: Inhibition of bleomycin hydrolase; assay type: biochemical
[5] = tested on: mammalian cells including cancer cells; assay: Inhibition of growth of mammalian cells; assay type: cell-based

COC(=O)[C@H](CC(C)C)NC(=O)[C@@H](O)[C@@H](Cc1ccccc1)NC(C)=O [N-acetyl-bestatin methyl ester]
50% inhibition dose (ID50) of aminopeptidase B (aminopeptidase B): 8 µg

CC(C)C[C@H](NC(=O)[C@@H](O)[C@H](N)Cc1ccccc1)C(=O)O [bestatin, [(2S,3R)-3-amino-2-hydroxy-4-phenylbutanoyl]-L-leucine]
pIC50 (aminopeptidase B; aminopeptidase B of rat liver): 6.75 | 50% inhibition dose (ID50) of aminopeptidase B (aminopeptidase B): 0.1 µg and 0.10 µg | mode of inhibition (aminopeptidase B; substrate L-arginine-β-naphthylamide): competitive with the substrate | mode of inhibition (leucine aminopeptidase): competitive with the substrate | inhibition of aminopeptidase A [1]: did not show any inhibition | inhibition of aminopeptidase A ([1]; at 100 μg/ml, aminopeptidase A of human serum): 26.4% | inhibition of trypsin (trypsin): did not show any inhibition | inhibition of chymotrypsin (chymotrypsin): did not show any inhibition | inhibition of elastase (elastase): did not show any inhibition | inhibition of papain (papain): did not show any inhibition | inhibition of pepsin (pepsin): did not show any inhibition | inhibition of thermolysin (thermolysin): did not show any inhibition | antibacterial activity (bacteria; at 100 μg/ml): no antibacterial | antibacterial activity (bacteria; no concentration given): substantially no antibacterial activity | antifungal activity (fungi): no antifungal | toxicity ([2]; intraperitoneal injection of 295 mg/kg, mouse): no toxicity | death ([2]; intraperitoneal injection of 300 mg/kg, mice): no death | increase of bleomycin activity in inhibiting Yoshida rat sarcoma cells [3]: 4- 8 times | increase of bleomycin effect on squamous cell carcinoma [4]: 4 times | stability (activity after treatment) (Stability to pH and heat): No decrease of the activity | solubility (Solubility in solvents; ethyl acetate, butyl acetate, ethyl ether, hexane, petroleum ether, benzene, chloroform): practically insoluble; also recorded: hardly soluble | solubility (Solubility in solvents; propanol and butanol): slightly soluble; also recorded: less soluble | solubility (Solubility in solvents; water, acetic acid, pyridine, dimethylsulfoxide, methanol, ethanol): soluble | inhibition of bleomycin hydrolase (bleomycin hydrolase): strong inhibition | inhibition of growth of mammalian cells [5]: weak inhibition

COC(=O)[C@H](CC(C)C)NC(=O)[C@@H](O)[C@H](N)Cc1ccccc1 [methyl ester of bestatin]
50% inhibition dose (ID50) of aminopeptidase B (aminopeptidase B): 8.4 µg
